Target: T1, subtype M of human STING (Homo sapiens, UniProt Q86WV6)
T1 construct: expressed in transfected cells
Assay: type 1 interferon promoter luciferase reporter in HEK293T cell lines stably expressing subtype M of human STING
Type: cell-based
Parameters: dose or concentration left out as unconfirmed
Conditions: c-di-AMP final concentration in complete medium, 16 hour
Description: After two weeks, drug resistance strains occurred.
Incubate for 20 min at room temperature. […] After 24 hours, the supernatants were removed.

T1 sequence (Q86WV6 120-379): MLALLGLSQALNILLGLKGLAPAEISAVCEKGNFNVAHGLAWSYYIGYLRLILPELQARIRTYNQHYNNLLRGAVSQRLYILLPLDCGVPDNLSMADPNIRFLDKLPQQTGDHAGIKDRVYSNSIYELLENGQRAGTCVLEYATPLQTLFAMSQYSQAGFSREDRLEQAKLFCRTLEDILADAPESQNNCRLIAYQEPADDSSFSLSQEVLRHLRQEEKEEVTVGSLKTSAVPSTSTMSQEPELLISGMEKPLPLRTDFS

luciferase activity compared with control group in which only transfection was performed: significantly increased
SMILES: Nc1ncnc2c1ncn2[C@@H]1O[C@@H]2COP(=O)(O)O[C@H]3[C@@H](O)[C@H](n4cnc5c(N)ncnc54)O[C@@H]3COP(=O)(O)O[C@H]2[C@H]1O [c-di-AMP]
